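Tested at 5 concentrations; 48 h exposure; 96-well plates; endpoints linearly interpolated, else capped at highest concentration. GI50 is the concentration that inhibits growth by half.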 Calls of active or inactive are those of the source. Cut-off read from the data, not from the text of the source: active = GI50 up to about 1.1 µM and inactive = higher.
Legend:
Assay in all cases: DTP human tumour cell line panel, 48 h
[1] = system: 786-0
[2] = system: A498
[3] = system: A549
[4] = system: ACHN
[5] = system: CAKI-1
[6] = system: CCRF-CEM
[7] = system: COLO 205
[8] = system: DLD-1
[9] = system: DMS-114
[10] = system: DMS-273
[11] = system: EKVX
[12] = system: HCC 2998
[13] = system: HCT-116
[14] = system: HCT-15
[15] = system: HOP-18
[16] = system: HOP-62
[17] = system: HOP-92
[18] = system: HT-29
[19] = system: IGROV-1
[20] = system: K562
[21] = system: KM-20L2
[22] = system: KM12
[23] = system: LOX IMVI
[24] = system: LXFL 529
[25] = system: M14
[26] = system: M19-MEL
[27] = system: MOLT-4
[28] = system: Malme-3M
[29] = system: NCI-H226
[30] = system: NCI-H23
[31] = system: NCI-H460
[32] = system: NCI-H522
[33] = system: OVCAR-3
[34] = system: OVCAR-4
[35] = system: OVCAR-5
[36] = system: OVCAR-8
[37] = system: RPMI-8226
[38] = system: RXF 393
[39] = system: RXF 631
[40] = system: SF-268
[41] = system: SF-295
[42] = system: SK-MEL-28
[43] = system: SK-MEL-2
[44] = system: SK-MEL-5
[45] = system: SK-OV-3
[46] = system: SN12C
[47] = system: SNB-19
[48] = system: SNB-75
[49] = system: SNB-78
[50] = system: SR
[51] = system: SW-620
[52] = system: TK-10
[53] = system: U-251
[54] = system: UACC-257
[55] = system: UACC-62
[56] = system: UO-31

With CCCCCCCCCCCCCCCCCC[N+](C)(C)Cc1ccc(C[N+](C)(C)CCCCCCCCCCCCCCCCCC)cc1 the GI50 [1] was 12.7 µM (inactive), the GI50 [2] was 22.8 µM (inactive) and the GI50 [3] was 13.6 µM (inactive). For the same compound, the GI50 [4] was 10.4 µM (inactive), the GI50 [5] was 21.2 µM (inactive) and the GI50 [6] was 16.9 µM (inactive). The GI50 [7] was 34.8 µM (inactive), the GI50 [8] was 22.1 µM (inactive) and the GI50 [9] was 9.46 µM (inactive). The GI50 [10] was 16.1 µM (inactive), the GI50 [11] was 18.9 µM (inactive) and the GI50 [12] was 26.2 µM (inactive). The GI50 [13] was 14.2 µM (inactive), the GI50 [14] was 28 µM and the GI50 [15] was 13 µM (inactive). For the same compound, the GI50 [16] was 4.41 µM (inactive), the GI50 [17] was 5.26 µM (inactive) and the GI50 [18] was 18.7 µM (inactive). The GI50 [19] was 16.6 µM (inactive), the GI50 [20] was 45.1 µM (inactive) and the GI50 [21] was 31.3 µM (inactive). For the same compound, the GI50 [22] was 12.4 µM (inactive), the GI50 [23] was 13.6 µM (inactive) and the GI50 [24] was 2.51 µM (inactive). For the same compound, the GI50 [25] was 17.3 µM (inactive), the GI50 [26] was 16.9 µM (inactive) and the GI50 [27] was 21 µM (inactive). For the same compound, the GI50 [28] was 24.3 µM (inactive), the GI50 [29] was 5.53 µM (inactive) and the GI50 [30] was 4.09 µM (inactive). The GI50 [31] was 17.6 µM (inactive), the GI50 [32] was 2.97 µM (inactive) and the GI50 [33] was 7.01 µM (inactive). The GI50 [34] was 9.53 µM (inactive), the GI50 [35] was 32.9 µM (inactive) and the GI50 [36] was 6.5 µM (inactive). For the same compound, the GI50 [37] was 15.6 µM (inactive), the GI50 [38] was 2.71 µM (inactive) and the GI50 [39] was 20.9 µM (inactive). For the same compound, the GI50 [40] was 21.7 µM (inactive), the GI50 [41] was 11.3 µM (inactive) and the GI50 [42] was 18.1 µM (inactive). For the same compound, the GI50 [43] was 24.1 µM (inactive), the GI50 [44] was 22.8 µM (inactive) and the GI50 [45] was 26.6 µM (inactive). The GI50 [46] was 10.9 µM (inactive), the GI50 [47] was 14.1 µM (inactive) and the GI50 [48] was 3.15 µM (inactive). The GI50 [49] was 18.8 µM (inactive), the GI50 [50] was 2.39 µM (inactive) and the GI50 [51] was 18.2 µM (inactive). For the same compound, the GI50 [52] was 13.6 µM (inactive), the GI50 [53] was 7.98 µM (inactive) and the GI50 [54] was 15.9 µM (inactive). For the same compound, the GI50 [55] was 21.9 µM (inactive) and the GI50 [56] was 27.7 µM (inactive).

Reference: ChEMBL document CHEMBL1201862, “PubChem BioAssay data set” (2004)
